According to a melting point compilation (Tetko et al.; mined from patent text by program, amines drawn as free bases though some values may be those of a salt):

| melting point [°C] | SMILES |
| --- | --- |
| 189 to 190 | CN1CCN(c2cccc3c2C[C@H](NC(=O)c2ccc(F)cc2)CC3)CC1 |
| 40 to 41 | O=C(CCCCC1CCSS1)N1CCSC1 (stereo unspecified) |
| 77 to 78 | c1ccc2c(c1)CSSC2 |
| 78 to 79 | CCCCCCCCCCCCCCCCCCOCC(COC(c1ccccc1)(c1ccccc1)c1ccccc1)OC(=O)N1CCOCC1 (stereo unspecified) |
| 100 to 104 | COc1ccc(C(C)C)cc1-c1cc(-c2nnnn2C2CCN(C(=O)OC(C)(C)C)C2)c(O)cc1O (stereo unspecified) |
| 192 to 194 | COc1cn(-c2ccc(N3CCC(F)(F)CC3)cc2F)nc(-c2ccnn2-c2ccccc2)c1=O |
| 208 to 210 | Cc1[nH]c2ccccc2c1CCCN1CCC(c2noc3cc(F)ccc23)CC1 |
| 105 to 107 | N#Cc1ncn2c1N(C(=O)CN1CCN(C(c3ccccc3)c3ccc(Cl)cc3)CC1)CC=C2c1cccc(C(F)(F)F)c1 (stereo unspecified) |
| 139 to 143 | COc1ccc(N2CCN(c3c(C)c(C)c4c(c3C)CC(C)(CN3CCC(O)CC3)O4)CC2)cc1 (stereo unspecified) |
| 176 | Cc1cccc(NC(=O)NCC(=O)N(CC(=O)OC2CCCCC2)c2ccccc2)c1 |
| 78 to 79 | CCOC(=O)C(C)(C)Oc1ccc(OCCc2nc(-c3ccc(Br)cc3)oc2C)cc1 |
| 193 to 194 | OCCCNc1ccc2ncnn2n1 |
| 85 to 87 | CCOC(=O)CCCCn1c(C(=O)NCc2nnc(C)n2-c2sc(CC)cc2C(=O)c2ccccc2Cl)cc2ccccc21 |
| 229 to 230 | COC(=O)C1Cc2c([nH]c3ccccc23)C(C)N1C(=S)SC (stereo unspecified) |
| 142 to 144 | COc1ccc(C2CNC(=O)N2C)cc1OC1CC2CCC1C2 (stereo unspecified) |
| 103 to 108 | CC1(COc2ccc(Cc3nnn[nH]3)cc2)CCCCC1O (stereo unspecified) |
| 203 to 205 | CC(C)(C)NCC(O)COc1ccc2c(c1-c1nc(C(F)(F)F)c[nH]1)CCCC2 (stereo unspecified) |

More lines, now with the values behind:

| SMILES | melting point [°C] |
| --- | --- |
| CC(O)(CSc1ccc(F)cc1)C(=O)O (stereo unspecified) | 73 to 75 |
| Nc1c([N+](=O)[O-])sc2c(F)cccc12 | 238 to 240 |
| CC1=Nc2c(Br)cc(Br)cc2S(=O)(=O)N1 | 287 to 289 |
| NCc1[nH]c2ccc(Cl)cc2c1-c1c(F)cccc1F | 199 to 200 |
| Cc1c(OCC(F)(F)F)ccnc1CSc1nc2ccccc2n1N | 134 to 135 |
| CCOC(=O)c1oc2ccccc2c1N=CN(C)C | 89 to 90 |
| CCOC(=O)c1cc(S)n2c(C)nnc2n1 | 206 to 208 |
| CC(C)c1ccc(C(O)C(=O)O)cc1 (stereo unspecified) | 156 to 157 |
| Cc1sc(N)c(C(=O)c2ccc(Cl)cc2)c1C | 122 to 123 |
| Cc1cn(C)cc1-c1cc2nccnc2[nH]1 | 210 |
| CC(C)(C)N1CC(=O)Nc2cccc(Cl)c21 | 198 |
| CCc1nccc(NC(=O)Cc2ccc(O)cc2)c1Cl | 158 to 161 |
| O=C(NC(=S)NCCSCc1c[nH]cn1)c1ccccc1 | 126 to 128 |
| C#Cc1cccc(Nc2ncnc3ccc(-c4ccccc4C(=O)OCC)cc23)c1 | 174 to 177 |
| CCOC(=O)c1cc2cc(NC(C)=O)ccc2nn1 | 256 to 258 |
| COc1ccc(-c2c3cccc(C(F)(F)F)c3nn2CC(C)C)c(OC)c1 | 111 to 112 |
| Cc1ccc(-c2c(CNC(=O)OC(C)(C)C)n(CC(C)C)c(=O)c3ccc(O)cc23)cc1 | 233 to 234 |
| O[C@@H](CNCCOc1ccc2oc(-c3ccon3)cc2c1)COc1ccccc1C(F)(F)F | 90 to 91 |
| CC(C)(Oc1ccc(C(=O)NCc2ccc(Cl)cc2)cc1)C(=O)O | 180 |
| Cc1ccc(S(=O)(=O)On2nnc3ccc([N+](=O)[O-])cc32)cc1 | 142 to 144 |
| COC(=O)Cn1c(=O)[nH]c(=O)c2ccc(Cl)cc21 | 255 to 258 |
| Oc1ccc2c(c1)C13CCN(CC4CC4)C(C2)C1OCOC3 (stereo unspecified) | 193 to 196 |
| CCc1ccc(Nc2nc3cc(NC(=O)c4cc(F)cc(C(F)(F)F)c4)ccc3o2)cc1 | > 250 |
| c1cnc(-c2cc(C3CC3)on2)cn1 | 86 to 91 |
